Source: the supplement of paper PMC8612539

System: Escherichia coli
Assay: minimum inhibitory concentration (MIC)
Procedure: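 Broth microdilution MIC (Sensititre BOPO7F bovine plate, CLSI methods) of 19 antimicrobials against field isolates of P. multocida, M. haemolytica, H. somni (deep nasopharyngeal swabs) and E. coli, Enterococcus spp. (rectal swabs) from weaned dairy heifers. Incubation 16-24 h at 35 C. MIC is the lowest concentration preventing visible growth. Values with <= or > lie at the tested range limits. Trimethoprim-sulfamethoxazole is given as the trimethoprim component of a 1:19 mixture.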

[1] = isolate (source animal id): 100
[2] = isolate (source animal id): 101
[3] = isolate (source animal id): 102
[4] = isolate (source animal id): 103
[5] = isolate (source animal id): 104
[6] = isolate (source animal id): 105
[7] = isolate (source animal id): 106
[8] = isolate (source animal id): 107
[9] = isolate (source animal id): 108
[10] = isolate (source animal id): 109
[11] = isolate (source animal id): 110
[12] = isolate (source animal id): 111
[13] = isolate (source animal id): 112
[14] = isolate (source animal id): 113
[15] = isolate (source animal id): 114
[16] = isolate (source animal id): 115
[17] = isolate (source animal id): 116
[18] = isolate (source animal id): 117
[19] = isolate (source animal id): 118
[20] = isolate (source animal id): 119
[21] = isolate (source animal id): 120
[22] = isolate (source animal id): 121
[23] = isolate (source animal id): 122
[24] = isolate (source animal id): 123
[25] = isolate (source animal id): 124
[26] = isolate (source animal id): 125
[27] = isolate (source animal id): 126
[28] = isolate (source animal id): 127
[29] = isolate (source animal id): 128
[30] = isolate (source animal id): 129
[31] = isolate (source animal id): 130
[32] = isolate (source animal id): 131
[33] = isolate (source animal id): 132
[34] = isolate (source animal id): 133
[35] = isolate (source animal id): 134
[36] = isolate (source animal id): 135
[37] = isolate (source animal id): 136
[38] = isolate (source animal id): 137
[39] = isolate (source animal id): 138
[40] = isolate (source animal id): 139
[41] = isolate (source animal id): 140
[42] = isolate (source animal id): 141
[43] = isolate (source animal id): 142
[44] = isolate (source animal id): 143
[45] = isolate (source animal id): 144
[46] = isolate (source animal id): 145
[47] = isolate (source animal id): 146
[48] = isolate (source animal id): 147
[49] = isolate (source animal id): 148
[50] = isolate (source animal id): 149
[51] = isolate (source animal id): 150
[52] = isolate (source animal id): 151
[53] = isolate (source animal id): 152
[54] = isolate (source animal id): 153
[55] = isolate (source animal id): 154
[56] = isolate (source animal id): 155
[57] = isolate (source animal id): 156
[58] = isolate (source animal id): 157
[59] = isolate (source animal id): 158
[60] = isolate (source animal id): 159
[61] = isolate (source animal id): 160
[62] = isolate (source animal id): 161
[63] = isolate (source animal id): 162
[64] = isolate (source animal id): 163
[65] = isolate (source animal id): 164
[66] = isolate (source animal id): 165
[67] = isolate (source animal id): 166
[68] = isolate (source animal id): 167
[69] = isolate (source animal id): 168
[70] = isolate (source animal id): 169
[71] = isolate (source animal id): 170
[72] = isolate (source animal id): 171
[73] = isolate (source animal id): 172
[74] = isolate (source animal id): 173
[75] = isolate (source animal id): 174
[76] = isolate (source animal id): 175
[77] = isolate (source animal id): 176
[78] = isolate (source animal id): 177
[79] = isolate (source animal id): 178
[80] = isolate (source animal id): 179
[81] = isolate (source animal id): 180
[82] = isolate (source animal id): 181
[83] = isolate (source animal id): 182
[84] = isolate (source animal id): 183
[85] = isolate (source animal id): 184
[86] = isolate (source animal id): 185
[87] = isolate (source animal id): 186
[88] = isolate (source animal id): 187
[89] = isolate (source animal id): 188

Measured: minimum inhibitory concentration

C=C[C@]1(C)C[C@@H](OC(=O)CSCCN(CC)CC)[C@]2(C)[C@H](C)CC[C@]3(CCC(=O)[C@H]32)[C@@H](C)[C@@H]1O [Tiamulin]
32 µg/mL: isolate (source animal id): 8 | [1] | [13] | [17] | [25] | [29] | [30] | [39] | [48] | [53] | [56] | [69] | [71] | [88]
16 µg/mL: [26]
> 32 µg/mL: isolate (source animal id): 9 | isolate (source animal id): 10 | isolate (source animal id): 11 | isolate (source animal id): 12 | isolate (source animal id): 13 | isolate (source animal id): 14 | isolate (source animal id): 15 | isolate (source animal id): 16 | isolate (source animal id): 98 | isolate (source animal id): 99 | [2] | [3] | [4] | [5] | [6] | [7] | [8] | [9] | [10] | [11] | [12] | [14] | [15] | [16] | [18] | [19] | [20] | [21] | [22] | [23] | [24] | [27] | [28] | [31] | [32] | [33] | [34] | [35] | [36] | [37] | [38] | [40] | [41] | [42] | [43] | [44] | [45] | [46] | [47] | [49] | [50] | [51] | [52] | [54] | [55] | [57] | [58] | [59] | [60] | [61] | [62] | [63] | [64] | [65] | [66] | [67] | [68] | [70] | [72] | [73] | [74] | [75] | [76] | [77] | [78] | [79] | [80] | [81] | [82] | [83] | [84] | [85] | [86] | [87] | [89]

CCN1CCN(c2cc3c(cc2F)c(=O)c(C(=O)O)cn3C2CC2)CC1 [Enrofloxacin]
0.5 µg/mL: isolate (source animal id): 14 | [19] | [33] | [38] | [47] | [55]
0.25 µg/mL: [40] | [49]
≤ 0.12 µg/mL: isolate (source animal id): 8 | isolate (source animal id): 10 | isolate (source animal id): 11 | isolate (source animal id): 13 | isolate (source animal id): 15 | isolate (source animal id): 16 | isolate (source animal id): 98 | isolate (source animal id): 99 | [1] | [2] | [3] | [4] | [5] | [6] | [8] | [9] | [10] | [11] | [13] | [15] | [18] | [22] | [23] | [24] | [26] | [28] | [29] | [31] | [34] | [35] | [36] | [37] | [41] | [42] | [43] | [46] | [50] | [51] | [52] | [53] | [54] | [56] | [58] | [59] | [60] | [61] | [62] | [64] | [65] | [66] | [67] | [68] | [69] | [70] | [71] | [72] | [73] | [74] | [75] | [76] | [77] | [78] | [79] | [80] | [81] | [82] | [83] | [84] | [85] | [86] | [87] | [88]
2 µg/mL: [32] | [89]
1 µg/mL: [14] | [16] | [17] | [21] | [30] | [44] | [57]
> 2 µg/mL: isolate (source animal id): 9 | isolate (source animal id): 12 | [7] | [12] | [20] | [25] | [27] | [39] | [45] | [48] | [63]

COc1cc(NS(=O)(=O)c2ccc(N)cc2)nc(OC)n1 [sulfadimethoxine]
> 256 µg/mL: isolate (source animal id): 8 | isolate (source animal id): 9 | isolate (source animal id): 10 | isolate (source animal id): 12 | isolate (source animal id): 14 | isolate (source animal id): 16 | [1] | [2] | [3] | [4] | [5] | [6] | [7] | [8] | [9] | [11] | [12] | [13] | [14] | [16] | [17] | [18] | [20] | [21] | [22] | [23] | [24] | [25] | [26] | [27] | [28] | [29] | [30] | [31] | [32] | [33] | [34] | [35] | [37] | [39] | [40] | [42] | [43] | [44] | [45] | [46] | [47] | [48] | [49] | [50] | [51] | [52] | [53] | [54] | [55] | [56] | [57] | [58] | [59] | [60] | [61] | [62] | [63] | [64] | [65] | [66] | [67] | [68] | [71] | [74] | [76] | [77] | [78] | [79] | [81] | [82] | [83] | [84] | [85] | [86] | [88] | [89]
≤ 256 µg/mL: isolate (source animal id): 11 | isolate (source animal id): 13 | isolate (source animal id): 15 | isolate (source animal id): 98 | isolate (source animal id): 99 | [10] | [15] | [19] | [36] | [38] | [41] | [69] | [70] | [72] | [73] | [75] | [80] | [87]
